Laboratory results reported in ChEMBL document CHEMBL1201862, “PubChem BioAssay data set” (2004).
Activity calls are given as the source filed them.

Columns and labels:
Genome polyprotein = Genome polyprotein (dengue virus type 2, UniProt P29990); assay: flavivirus cap methylation enzyme inhibition – biochemical, confirmation dose response, primary screen (AID 588689); format: functional
Streptokinase A = biological target: T1, Streptokinase A (Streptococcus pyogenes serotype M1, UniProt P10520); assay: viability-normalized secreted streptokinase activity reduction – plasminogen activation absorbance, OD405, dose response (AID 1914); format: functional, Streptococcus pyogenes M1 GAS;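 further: secreted streptokinase activity via plasminogen activation per viability signal from cell pellet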
T1 sequence (P10520 whole entry): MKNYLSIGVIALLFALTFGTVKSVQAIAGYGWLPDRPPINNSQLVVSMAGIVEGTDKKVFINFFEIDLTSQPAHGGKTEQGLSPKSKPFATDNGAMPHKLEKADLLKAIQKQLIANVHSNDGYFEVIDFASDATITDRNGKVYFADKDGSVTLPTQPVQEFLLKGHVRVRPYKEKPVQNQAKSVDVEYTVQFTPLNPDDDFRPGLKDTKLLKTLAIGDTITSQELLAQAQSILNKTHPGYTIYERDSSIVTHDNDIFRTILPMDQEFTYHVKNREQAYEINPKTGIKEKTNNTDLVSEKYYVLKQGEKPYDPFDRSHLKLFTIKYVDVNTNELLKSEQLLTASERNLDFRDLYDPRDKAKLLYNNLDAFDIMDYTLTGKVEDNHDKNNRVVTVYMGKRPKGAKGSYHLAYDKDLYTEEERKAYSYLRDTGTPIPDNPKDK

[1] = biological target: T2, Histone-lysine N-methyltransferase NSD2 (Homo sapiens, UniProt O96028); format: biochemical
T2 sequence (O96028 whole entry): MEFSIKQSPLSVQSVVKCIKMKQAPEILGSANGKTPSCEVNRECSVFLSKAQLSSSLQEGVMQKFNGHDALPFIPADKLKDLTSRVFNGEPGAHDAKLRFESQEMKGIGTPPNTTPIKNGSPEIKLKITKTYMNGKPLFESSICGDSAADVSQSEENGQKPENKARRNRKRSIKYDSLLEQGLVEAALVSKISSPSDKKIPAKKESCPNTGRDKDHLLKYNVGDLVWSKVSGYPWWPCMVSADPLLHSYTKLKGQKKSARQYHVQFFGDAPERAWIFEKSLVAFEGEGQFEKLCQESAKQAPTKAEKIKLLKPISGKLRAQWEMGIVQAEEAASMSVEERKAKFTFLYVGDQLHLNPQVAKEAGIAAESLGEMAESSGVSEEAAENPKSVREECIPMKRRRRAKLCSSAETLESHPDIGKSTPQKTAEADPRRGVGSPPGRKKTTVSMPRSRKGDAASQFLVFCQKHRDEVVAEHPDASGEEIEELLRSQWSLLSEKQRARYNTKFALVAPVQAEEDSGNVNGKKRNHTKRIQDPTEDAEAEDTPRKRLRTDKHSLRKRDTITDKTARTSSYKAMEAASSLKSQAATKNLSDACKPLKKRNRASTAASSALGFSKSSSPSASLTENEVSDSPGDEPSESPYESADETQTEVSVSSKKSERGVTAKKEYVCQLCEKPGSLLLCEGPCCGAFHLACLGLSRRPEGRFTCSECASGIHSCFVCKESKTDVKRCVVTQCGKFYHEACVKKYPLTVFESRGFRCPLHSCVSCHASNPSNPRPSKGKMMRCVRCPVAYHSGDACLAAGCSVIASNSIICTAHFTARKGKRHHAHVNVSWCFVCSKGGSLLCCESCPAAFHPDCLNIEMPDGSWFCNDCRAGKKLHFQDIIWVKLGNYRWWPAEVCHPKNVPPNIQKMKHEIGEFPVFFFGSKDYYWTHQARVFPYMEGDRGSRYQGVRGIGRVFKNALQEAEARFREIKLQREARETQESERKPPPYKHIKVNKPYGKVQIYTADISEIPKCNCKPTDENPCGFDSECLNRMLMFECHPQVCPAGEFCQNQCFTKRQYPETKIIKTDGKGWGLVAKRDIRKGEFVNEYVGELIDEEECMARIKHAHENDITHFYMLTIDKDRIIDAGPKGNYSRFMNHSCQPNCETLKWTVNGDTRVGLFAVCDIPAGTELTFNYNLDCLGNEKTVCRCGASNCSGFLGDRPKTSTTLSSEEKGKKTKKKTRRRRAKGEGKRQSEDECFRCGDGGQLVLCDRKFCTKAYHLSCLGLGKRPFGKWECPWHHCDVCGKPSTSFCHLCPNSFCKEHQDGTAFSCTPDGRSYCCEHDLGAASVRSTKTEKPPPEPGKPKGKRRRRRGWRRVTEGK

[2] = biological target: Tyrosine-protein kinase ABL1 (Homo sapiens, UniProt P00519); format: functional
[3] = biological target: Non-receptor tyrosine-protein kinase TYK2 (Homo sapiens, UniProt P29597); format: functional
[4] = biological target: Serine/threonine-protein kinase MRCK alpha (Homo sapiens, UniProt Q5VT25); format: functional
Sequence of Serine/threonine-protein kinase MRCK alpha (Q5VT25 whole entry): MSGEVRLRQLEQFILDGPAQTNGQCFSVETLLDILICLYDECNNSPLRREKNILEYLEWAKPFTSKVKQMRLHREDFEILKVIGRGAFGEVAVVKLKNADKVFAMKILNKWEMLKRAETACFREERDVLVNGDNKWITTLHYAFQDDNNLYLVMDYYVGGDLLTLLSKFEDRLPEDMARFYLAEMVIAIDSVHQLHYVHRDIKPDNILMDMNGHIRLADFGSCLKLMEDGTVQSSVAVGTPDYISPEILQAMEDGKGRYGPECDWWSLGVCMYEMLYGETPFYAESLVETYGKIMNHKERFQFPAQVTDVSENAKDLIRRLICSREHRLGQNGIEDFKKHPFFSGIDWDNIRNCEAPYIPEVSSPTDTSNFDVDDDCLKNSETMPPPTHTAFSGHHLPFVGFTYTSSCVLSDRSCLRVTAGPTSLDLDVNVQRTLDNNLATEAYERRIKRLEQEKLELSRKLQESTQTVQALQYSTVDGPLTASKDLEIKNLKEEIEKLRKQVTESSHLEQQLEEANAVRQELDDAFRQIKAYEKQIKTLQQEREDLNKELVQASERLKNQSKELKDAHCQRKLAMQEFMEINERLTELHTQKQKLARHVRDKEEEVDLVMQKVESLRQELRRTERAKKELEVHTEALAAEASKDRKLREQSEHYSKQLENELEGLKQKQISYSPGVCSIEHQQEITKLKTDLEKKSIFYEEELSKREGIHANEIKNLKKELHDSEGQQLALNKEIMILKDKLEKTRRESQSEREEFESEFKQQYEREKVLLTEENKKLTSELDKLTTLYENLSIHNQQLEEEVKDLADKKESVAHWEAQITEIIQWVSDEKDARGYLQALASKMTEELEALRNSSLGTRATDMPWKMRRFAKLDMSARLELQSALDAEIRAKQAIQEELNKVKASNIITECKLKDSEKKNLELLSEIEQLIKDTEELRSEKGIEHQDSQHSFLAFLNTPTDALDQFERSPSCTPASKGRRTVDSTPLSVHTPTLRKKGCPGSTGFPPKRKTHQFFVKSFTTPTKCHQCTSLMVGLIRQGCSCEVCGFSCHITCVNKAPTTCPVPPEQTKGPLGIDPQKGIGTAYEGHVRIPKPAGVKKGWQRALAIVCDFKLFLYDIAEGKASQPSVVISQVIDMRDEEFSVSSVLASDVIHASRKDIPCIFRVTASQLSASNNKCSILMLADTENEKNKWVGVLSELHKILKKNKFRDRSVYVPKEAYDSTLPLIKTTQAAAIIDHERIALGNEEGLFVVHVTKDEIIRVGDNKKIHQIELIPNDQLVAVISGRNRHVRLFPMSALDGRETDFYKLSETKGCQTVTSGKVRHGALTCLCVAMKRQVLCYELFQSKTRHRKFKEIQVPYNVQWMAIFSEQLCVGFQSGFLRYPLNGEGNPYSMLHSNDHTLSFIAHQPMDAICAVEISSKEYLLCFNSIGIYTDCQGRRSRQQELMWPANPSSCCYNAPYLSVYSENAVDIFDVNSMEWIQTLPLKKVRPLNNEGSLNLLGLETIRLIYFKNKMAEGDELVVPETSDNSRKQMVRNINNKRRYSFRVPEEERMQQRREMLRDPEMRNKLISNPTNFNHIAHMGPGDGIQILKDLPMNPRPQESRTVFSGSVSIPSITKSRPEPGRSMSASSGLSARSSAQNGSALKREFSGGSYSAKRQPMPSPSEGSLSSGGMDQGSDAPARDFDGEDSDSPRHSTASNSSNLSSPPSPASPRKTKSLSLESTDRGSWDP

[5] = biological target: MAP kinase-interacting serine/threonine-protein kinase 2 (Homo sapiens, UniProt Q9HBH9); format: functional
[6] = biological target: Serine/threonine-protein kinase Chk2 (Homo sapiens, UniProt O96017); format: functional;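 further: CHEK2 entry within a kinome-wide screening panel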
[7] = biological target: Calcium/calmodulin-dependent protein kinase type 1 (Homo sapiens, UniProt Q14012); format: functional
[8] = biological target: Rho-associated protein kinase 2 (Homo sapiens, UniProt O75116); format: functional
SRSF protein kinase 1 = SRSF protein kinase 1 (Homo sapiens, UniProt Q96SB4); format: functional;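 further: measured as one member of a kinome-wide kinase profiling panel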
[9] = biological target: Maternal embryonic leucine zipper kinase (Homo sapiens, UniProt Q14680); format: functional
[10] = biological target: Casein kinase I isoform delta (Homo sapiens, UniProt P48730); format: functional;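 further: measured as one member (CSNK1D) of a kinome panel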
Misshapen-like kinase 1 = Misshapen-like kinase 1 (Homo sapiens, UniProt Q8N4C8); format: functional;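 further: kinome panel screen with MINK as the panel member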
Sequence of Misshapen-like kinase 1 (Q8N4C8 whole entry): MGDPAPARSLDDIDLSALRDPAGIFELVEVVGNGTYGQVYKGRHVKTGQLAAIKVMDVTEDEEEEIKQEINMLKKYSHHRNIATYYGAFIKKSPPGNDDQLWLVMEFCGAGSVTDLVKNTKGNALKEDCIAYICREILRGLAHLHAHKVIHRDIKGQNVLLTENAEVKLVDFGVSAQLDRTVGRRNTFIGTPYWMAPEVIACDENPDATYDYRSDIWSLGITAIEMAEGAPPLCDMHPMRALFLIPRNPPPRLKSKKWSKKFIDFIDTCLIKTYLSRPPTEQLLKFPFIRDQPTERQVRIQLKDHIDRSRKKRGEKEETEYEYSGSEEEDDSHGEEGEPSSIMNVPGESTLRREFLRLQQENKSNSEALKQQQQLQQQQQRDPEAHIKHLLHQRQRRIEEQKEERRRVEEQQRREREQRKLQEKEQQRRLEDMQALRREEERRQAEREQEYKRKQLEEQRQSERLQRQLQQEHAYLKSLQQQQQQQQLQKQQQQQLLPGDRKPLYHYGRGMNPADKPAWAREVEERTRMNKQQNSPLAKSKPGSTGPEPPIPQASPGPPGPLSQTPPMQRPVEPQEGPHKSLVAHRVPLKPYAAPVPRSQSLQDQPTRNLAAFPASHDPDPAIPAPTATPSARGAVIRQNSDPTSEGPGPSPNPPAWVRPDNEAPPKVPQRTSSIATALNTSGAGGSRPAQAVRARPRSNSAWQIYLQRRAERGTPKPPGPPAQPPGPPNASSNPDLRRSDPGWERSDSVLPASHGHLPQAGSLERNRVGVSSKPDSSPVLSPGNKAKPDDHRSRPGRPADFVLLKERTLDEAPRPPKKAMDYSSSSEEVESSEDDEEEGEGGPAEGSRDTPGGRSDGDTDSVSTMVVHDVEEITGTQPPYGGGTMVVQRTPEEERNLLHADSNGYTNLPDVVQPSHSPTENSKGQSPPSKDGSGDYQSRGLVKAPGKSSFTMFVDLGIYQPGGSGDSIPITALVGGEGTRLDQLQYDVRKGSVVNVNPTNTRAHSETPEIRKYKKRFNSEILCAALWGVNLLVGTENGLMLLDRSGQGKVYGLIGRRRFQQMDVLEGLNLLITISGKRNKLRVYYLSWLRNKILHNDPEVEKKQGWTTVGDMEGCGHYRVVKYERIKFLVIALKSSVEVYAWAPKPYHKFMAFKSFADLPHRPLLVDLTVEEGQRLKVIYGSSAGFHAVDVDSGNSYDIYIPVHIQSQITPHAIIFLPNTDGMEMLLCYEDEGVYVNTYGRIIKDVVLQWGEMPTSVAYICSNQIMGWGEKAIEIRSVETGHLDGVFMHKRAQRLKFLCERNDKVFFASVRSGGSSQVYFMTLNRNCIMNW

[11] = biological target: Tyrosine-protein kinase Srms (Homo sapiens, UniProt Q9H3Y6); format: functional;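 further: SRMS measured as one member of a kinome-wide kinase profiling panel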
[12] = biological target: Serine/threonine-protein kinase Nek4 (Homo sapiens, UniProt P51957); format: functional
[13] = biological target: Platelet-derived growth factor receptor beta (Homo sapiens, UniProt P09619); format: functional;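 further: value comes from a kinome panel, with PDGFRB tested as one panel member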
[14] = biological target: Ribosomal protein S6 kinase alpha-5 (Homo sapiens, UniProt O75582); format: functional
[15] = biological target: Tyrosine-protein kinase ITK/TSK (Homo sapiens, UniProt Q08881); format: functional;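 further: affinity for ITK measured as one member of a broad kinase panel profiling binding across the kinome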
[16] = biological target: Tyrosine-protein kinase receptor UFO (Homo sapiens, UniProt P30530); format: functional
Sequence of Tyrosine-protein kinase receptor UFO (P30530 whole entry): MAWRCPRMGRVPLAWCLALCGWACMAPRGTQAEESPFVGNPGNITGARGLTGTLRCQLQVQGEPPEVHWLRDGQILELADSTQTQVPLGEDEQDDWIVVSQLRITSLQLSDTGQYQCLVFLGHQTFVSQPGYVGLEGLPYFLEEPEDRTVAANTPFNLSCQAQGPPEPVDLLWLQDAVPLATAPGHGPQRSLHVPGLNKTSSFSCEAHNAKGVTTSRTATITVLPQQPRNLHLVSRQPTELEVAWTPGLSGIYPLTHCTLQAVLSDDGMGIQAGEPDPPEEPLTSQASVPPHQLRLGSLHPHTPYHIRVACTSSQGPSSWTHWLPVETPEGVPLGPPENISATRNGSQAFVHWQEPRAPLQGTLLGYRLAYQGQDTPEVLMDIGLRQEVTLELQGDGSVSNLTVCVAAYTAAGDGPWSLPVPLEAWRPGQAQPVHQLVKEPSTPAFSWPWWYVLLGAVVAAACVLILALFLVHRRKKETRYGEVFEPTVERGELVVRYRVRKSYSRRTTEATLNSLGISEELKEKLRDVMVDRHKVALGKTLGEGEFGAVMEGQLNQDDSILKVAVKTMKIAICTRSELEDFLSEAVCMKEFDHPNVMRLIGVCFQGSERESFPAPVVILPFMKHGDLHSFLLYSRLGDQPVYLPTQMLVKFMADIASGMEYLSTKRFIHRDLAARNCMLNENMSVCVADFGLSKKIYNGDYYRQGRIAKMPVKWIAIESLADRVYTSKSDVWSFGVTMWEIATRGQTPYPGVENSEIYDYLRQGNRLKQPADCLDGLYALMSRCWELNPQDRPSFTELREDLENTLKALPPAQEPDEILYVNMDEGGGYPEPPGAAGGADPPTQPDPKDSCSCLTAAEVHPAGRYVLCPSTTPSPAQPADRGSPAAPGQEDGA

Sequence of Genome polyprotein (P29990 2492-3391 limits assumed): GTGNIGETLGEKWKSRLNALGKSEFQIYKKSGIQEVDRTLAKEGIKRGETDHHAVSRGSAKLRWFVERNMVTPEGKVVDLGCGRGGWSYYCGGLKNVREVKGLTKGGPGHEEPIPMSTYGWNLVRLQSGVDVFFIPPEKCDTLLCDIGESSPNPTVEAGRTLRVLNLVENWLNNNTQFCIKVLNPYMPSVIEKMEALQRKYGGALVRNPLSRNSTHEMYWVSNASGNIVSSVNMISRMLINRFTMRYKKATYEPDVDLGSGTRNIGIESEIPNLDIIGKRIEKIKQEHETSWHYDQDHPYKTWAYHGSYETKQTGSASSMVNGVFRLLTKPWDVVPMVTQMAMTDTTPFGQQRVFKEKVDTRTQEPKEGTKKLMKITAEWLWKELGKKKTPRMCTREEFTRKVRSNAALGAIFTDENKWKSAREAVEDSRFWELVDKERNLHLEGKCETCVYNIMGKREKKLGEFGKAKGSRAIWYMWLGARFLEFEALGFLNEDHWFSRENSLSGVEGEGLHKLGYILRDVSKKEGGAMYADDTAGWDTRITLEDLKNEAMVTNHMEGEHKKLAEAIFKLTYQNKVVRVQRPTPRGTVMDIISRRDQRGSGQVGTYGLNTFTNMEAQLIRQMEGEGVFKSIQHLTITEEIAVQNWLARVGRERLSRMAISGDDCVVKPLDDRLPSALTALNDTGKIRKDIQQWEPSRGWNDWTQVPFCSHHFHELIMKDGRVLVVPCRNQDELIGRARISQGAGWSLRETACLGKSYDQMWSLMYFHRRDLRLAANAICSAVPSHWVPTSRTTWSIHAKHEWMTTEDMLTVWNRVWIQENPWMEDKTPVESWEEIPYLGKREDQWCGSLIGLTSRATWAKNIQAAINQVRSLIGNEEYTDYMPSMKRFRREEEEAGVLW

Question: Which results are given for CC(/C=C1\SC(=S)N(NS(=O)(=O)c2ccc(C)cc2)C1=O)=C\c1ccccc1?
Answer: IC50 (Genome polyprotein): 27100 nM (active); EC50 (Streptokinase A): > 150000 nM (not active); AC50 [1]: 9980 nM (active)

Question: With COc1ccc(C2=NNc3cccc4c(OC)ccc2c34)cc1OC as the compound, how does the Ki [2] read?
Answer: The Ki was > 2510 nM (inactive).

Question: CN1CCC(c2c(O)cc(O)c3c(=O)cc(-c4ccccc4Cl)oc23)C(O)C1 (configuration not stated) was tested. Which Ki [3] did it give?
Answer: Its Ki is > 2000 nM (inactive).

Question: And the Ki [4]?
Answer: The Ki was 631 nM (active).

Question: And the pKi [4]?
Answer: The pKi was 6.2.

Question: And the Ki [5]?
Answer: The Ki was 5010 nM (active).

Question: And the Ki [6]?
Answer: The Ki was > 1580 nM (inactive).

Question: And the Ki [7]?
Answer: The Ki was > 3160 nM (inactive).

Question: What about the Ki [8] of the same compound?
Answer: Its Ki is > 6310 nM (inactive).

Question: And the Ki (SRSF protein kinase 1)?
Answer: The Ki was 501 nM (active).

Question: What about the Ki [9] of the same compound?
Answer: Its Ki is > 2000 nM (inactive).

Question: And the Ki [10]?
Answer: Its Ki is > 7940 nM (inactive).

Question: What about the Ki (Misshapen-like kinase 1) of the same compound?
Answer: Its Ki is > 7940 nM (inactive).

Question: And the Ki [11]?
Answer: Its Ki is > 1580 nM (inactive).

Question: What about the Ki [12] of the same compound?
Answer: The Ki was > 6310 nM (inactive).

Question: What about the Ki [13] of the same compound?
Answer: The Ki was > 2000 nM (inactive).

Question: And the Ki [14]?
Answer: The Ki was > 2000 nM (inactive).

Question: And the Ki [15]?
Answer: Its Ki is > 1580 nM (inactive).

Question: What about the Ki [16] of the same compound?
Answer: The Ki was 1000 nM (active).

Question: And the pKi [16]?
Answer: The pKi was 6.
